Test results from PMC10064330, “Reversible Dual-Covalent Molecular Locking of the 14-3-3/ERRγ Protein–Protein Interaction as a Molecular Glue Drug Discovery Approach” (Journal of the American Chemical Society, 2023).

Biological target: T1, 14-3-3γ/ERRγ complex (Homo sapiens, UniProt P61981+P62508)
T1 construct: made in house; host or cells: E. coli NiCo21 (DE3)
Test: Differential scanning fluorimetry (DSF)
Type: binding
Conditions: 5 μM 14-3-3γ, 200 μM compound, relative to DMSO; for ΔTm at 200 µM: read-out: increase in 14-3-3γ melting temperature (ΔTm)
Procedure: We screened the apo-14-3-3γ, the binary 14-3-3γ/ERRγ (10 eq.) complex, and the ternary complex of 14-3-3γ, the ERRγ phosphopeptide, and compounds 1 and 3–10 (Figure 2c and Figures S4 and S5). The DSF data corroborated the enhanced stabilization observed in the FA data, with molecular locks 5 and 10 eliciting 14-3-3γ melting temperature increases of 4.7 ± 0.2 and 6.0 ± 0.3 °C, respectively (Figure 2c).
Figure S4. Differential Scanning Fluorimetry. Raw melting curves (a-c, g-i) and derivatives of these melting curves (d-f, j-l) of 14-3-3γ (5 µM) with ERRγ (25 µM) incubated with either DMSO (black) or 200 µM compound 1-10.
(1 picture or pasted object on this page, not shown here)
Figure S5. Differential Scanning Fluorimetry. Raw melting curves (a-c) and derivatives of these melting curves (d-f) of 14-3-3γ (5 µM) with ERRγ (25 µM) incubated with either DMSO (black) or 200 µM compound 1-10. (g) […]
Differential Scanning Fluorimetry (DSF)
Different Scanning Fluorimetry (DSF) assays were performed using 40 µL samples containing 5 µM 14-3-3γ, 50 µM ERRγ pS179 9-mer peptide, 200 µM compound (or 1% DMSO) and 5x ProteoOrange (Lumiprobe, 5000x stock in DMSO) in 10 mM Hepes, 150 mM NaCl, 50 µM TCEP (pH 8.0). The samples were heated from 35 °C to 79 °C at a rate of 0.3 °C per 15 s in a CFX96 Touch Real-Time PCR Detection System (Bio-Rad). Fluorescence intensity was determined using excitation 470/40 nm and emission 570/20 nm filters. Based on these melting curves, the negative derivative melting curve is obtained from which the melting temperature Tm was determined. ΔTm values represent the differences in melting temperature relative to the DMSO control. All described melting temperatures are based on three independent experiments from which the average and standard deviations were determined using excel. […]
Washing steps were repeated three more times. […] Fluorescence was measured using the Tecan SPARK plate reader at room temperature with an excitation wavelength of 485 nm and an emission wavelength of 535 nm. Furthermore, fluorescence anisotropy of each sample was measured using the Tecan Infinite F500 plate reader at room temperature (lex: 485 ± 20 nm; lem: 535 ± 25 nm; mirror: Dichroic 510; flashes: 20; integration time: 50 ms; settle time: 0 ms; gain: 50; and Z-position: calculated from well) to determine whether all 14 -3-3γ was captured by the magnetic beads (should results in low anisotropy values in samp les after capturing in comparison to samples […]

T1 sequence (P61981 whole entry, other chains not shown): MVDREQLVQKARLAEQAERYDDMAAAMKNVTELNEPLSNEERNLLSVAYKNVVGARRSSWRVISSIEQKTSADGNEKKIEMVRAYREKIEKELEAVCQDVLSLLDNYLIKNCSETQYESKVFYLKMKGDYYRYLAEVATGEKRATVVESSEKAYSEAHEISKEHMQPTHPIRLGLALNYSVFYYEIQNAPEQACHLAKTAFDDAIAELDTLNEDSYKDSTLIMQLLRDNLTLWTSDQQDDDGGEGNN

Molecule `CN(C)CCSSCCN(C)C(=O)c1ccc(C=O)c(F)c1` [compound 5] has a ΔTm at 200 µM (ERRγ 10 eq.) of 4.7 ± 0.2 °C.
With `CN(C)CCNC(=O)c1ccc(C=O)c(F)c1` [compound 3] the “increase in 14-3-3γ melting temperature (ΔTm)” value (ERRγ 10 eq.) was “no significant change”.
`CN(C)CCSSCCN(C)C(=O)c1cccc(F)c1` [compound 1, reference compound] was tested, and the “decrease in melting temperature” value (ERRγ) was 2.6 °C.
Work on `CN(C)CCSSCCN(C)C(=O)c1cc(Br)cc(C=O)c1` [compound 10] yielded a ΔTm at 200 µM (ERRγ 10 eq.) of 6 ± 0.3 °C.
